ChEMBL document CHEMBL1132582, “Bicyclic tripeptide mimetics with reverse turn inducing properties” (J Med Chem, 1999)

Tests used:
[1] = target: T1, Angiotensin II receptor (AT-1) type-1 (Rattus norvegicus, UniProt P29089+P25095); test: Compound was evaluated in a radioligand binding assay to displace [125I]-Ang II from Angiotensin II receptor, type 1 in rat liver membranes; type: cell membranes, Membrane
T1 sequence (P29089 whole entry): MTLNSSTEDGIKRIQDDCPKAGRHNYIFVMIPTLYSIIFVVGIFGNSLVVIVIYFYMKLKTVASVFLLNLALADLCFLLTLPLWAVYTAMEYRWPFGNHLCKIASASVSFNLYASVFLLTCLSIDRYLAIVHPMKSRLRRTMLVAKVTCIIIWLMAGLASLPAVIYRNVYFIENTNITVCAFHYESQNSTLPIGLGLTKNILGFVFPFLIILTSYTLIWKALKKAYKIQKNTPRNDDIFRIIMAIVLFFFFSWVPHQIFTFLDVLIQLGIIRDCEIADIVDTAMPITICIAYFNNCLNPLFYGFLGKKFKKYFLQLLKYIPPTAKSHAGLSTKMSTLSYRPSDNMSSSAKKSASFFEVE
T1 sequence (P25095 whole entry): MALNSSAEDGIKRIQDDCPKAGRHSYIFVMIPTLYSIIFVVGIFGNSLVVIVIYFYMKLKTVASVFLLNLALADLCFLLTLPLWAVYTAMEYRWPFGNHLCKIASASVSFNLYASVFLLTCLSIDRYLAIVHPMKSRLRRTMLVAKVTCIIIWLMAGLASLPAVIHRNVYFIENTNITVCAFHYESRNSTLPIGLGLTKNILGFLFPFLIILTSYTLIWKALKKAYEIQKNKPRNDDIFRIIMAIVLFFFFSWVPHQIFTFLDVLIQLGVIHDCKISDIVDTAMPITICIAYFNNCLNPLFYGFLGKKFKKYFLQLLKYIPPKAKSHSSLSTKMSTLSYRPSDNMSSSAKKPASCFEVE

[2] = target: T1, Angiotensin II receptor (AT-1) type-1; test: Compound was evaluated in a binding assay using Chinese hamster ovary (CHO) cells stably expressing the rat Angiotensin II receptor, type 1; type: cell-based

IC50 [1]: >= 10 uM | IC50 [2]: >= 10 uM
SMILES: NC(N)=NCCC[C@H](NC(=O)[C@@H](N)CC(=O)O)C(=O)N[C@H]1C[C@H]2SC[C@@H](C(=O)N[C@@H](Cc3c[nH]cn3)C(=O)N3CCC[C@H]3C(=O)N[C@@H](Cc3ccccc3)C(=O)O)NC(=O)[C@H](Cc3ccc(O)cc3)N2C1=O
